Like-named read-outs stand apart in the source and are kept apart here.
Experiments:
MKP-1 = target: T1, MKP-1 (Homo sapiens, UniProt P28562); assay: PTP-catalyzed hydrolysis of DiFMUP, IC50 determination (MKP-1); assay type: biochemical
T1 sequence (P28562 1-367): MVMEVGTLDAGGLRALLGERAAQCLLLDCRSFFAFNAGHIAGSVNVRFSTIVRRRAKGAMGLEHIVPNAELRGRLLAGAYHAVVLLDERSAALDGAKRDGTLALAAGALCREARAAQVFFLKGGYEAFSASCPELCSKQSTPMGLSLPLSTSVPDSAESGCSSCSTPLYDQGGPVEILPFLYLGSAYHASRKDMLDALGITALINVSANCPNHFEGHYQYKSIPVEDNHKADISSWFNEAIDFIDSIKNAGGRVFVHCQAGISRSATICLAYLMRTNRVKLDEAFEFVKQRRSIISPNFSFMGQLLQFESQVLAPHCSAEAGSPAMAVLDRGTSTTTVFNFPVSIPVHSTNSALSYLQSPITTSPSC
Description: The PTP-catalyzed hydrolysis of 6,8-difluoro-4-methylumbelliferyl phosphate (DiFMUP) in the presence of the test compound is assayed at 30° C. in a 60 μL 96 well format reaction system in 0.15 M Bis-Tris, pH 6.0 assay buffer having an ionic strength of 150 mM (adjusted with NaCl) and containing 1 mM dithiotreitol and 5% DMSO. […] The nonenzymatic hydrolysis of the substrate was corrected by measuring the control without addition of enzyme. The IC50 value was determined by plotting the relative activity versus inhibitor concentrations and fitting to Equation 1 using the software GraphPad Prism™ (GraphPad Software, Inc.).
(§1) [formula] In this case, Vi, is the reaction velocity when the inhibitor concentration is [I], V0 is the reaction velocity with no inhibitor and IC50=Ki+Ki[S]/Km.

Cdc25A = target: T2, Cdc25A (Homo sapiens, UniProt P30304); assay: PTP-catalyzed hydrolysis of DiFMUP, IC50 determination (Cdc25A); assay type: biochemical
T2 sequence (P30304 1-524): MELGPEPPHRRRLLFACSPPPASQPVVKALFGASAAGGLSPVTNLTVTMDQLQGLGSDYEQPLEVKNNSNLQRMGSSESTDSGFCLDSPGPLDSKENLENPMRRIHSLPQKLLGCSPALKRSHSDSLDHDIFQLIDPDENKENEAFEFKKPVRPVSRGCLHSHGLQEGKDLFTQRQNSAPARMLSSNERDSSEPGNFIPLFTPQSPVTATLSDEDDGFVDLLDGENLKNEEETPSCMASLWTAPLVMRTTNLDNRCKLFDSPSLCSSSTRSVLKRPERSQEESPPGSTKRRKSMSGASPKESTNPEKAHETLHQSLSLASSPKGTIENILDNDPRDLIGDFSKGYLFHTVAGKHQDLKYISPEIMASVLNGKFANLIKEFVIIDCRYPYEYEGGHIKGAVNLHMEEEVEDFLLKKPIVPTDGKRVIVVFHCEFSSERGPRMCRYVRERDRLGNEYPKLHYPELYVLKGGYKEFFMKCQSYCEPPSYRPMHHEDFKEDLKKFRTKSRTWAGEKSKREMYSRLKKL
Description: The PTP-catalyzed hydrolysis of 6,8-difluoro-4-methylumbelliferyl phosphate (DiFMUP) in the presence of the test compound is assayed at 30° C. in a 60 μL 96 well format reaction system in 0.15 M Bis-Tris, pH 6.0 assay buffer having an ionic strength of 150 mM (adjusted with NaCl) and containing 1 mM dithiotreitol and 5% DMSO. At various concentrations of the compound, the initial rate at fixed DiFMUP concentration (equal to the corresponding Km value for each PTP) was determined using a FLx800 micro plate reader (Bio-Tek Instruments, Inc.), an excitation wave length of 360 nm and measuring the emission of the fluorescent reaction product 6,8-difluoro-7-hydroxy-4-methylcoumarin (DiFMU) at 460 nm. The nonenzymatic hydrolysis of the substrate was corrected by measuring the control without addition of enzyme. The IC50 value was determined by plotting the relative activity versus inhibitor concentrations and fitting to Equation 1 using the software GraphPad Prism™ (GraphPad Software, Inc.).
as §1

[1] = Table II, DiFMUP at Km, pH 6.0, 30° C.

| IC50 (MKP-1) [µM] | SMILES | IC50 (MKP-1; [1]) [µM] | IC50 (Cdc25A; [1]) [µM] | IC50 (Cdc25A) [µM] |
| --- | --- | --- | --- | --- |
|  | O=C1/C(=C/c2cn(-c3ccccc3)nc2-c2ccc(OCc3ccccc3)cc2)SC(=S)N1CCS(=O)(=O)O [Compound 9] | 0.779 | 3.44 |  |
|  | O=C1/C(=C/c2cn(-c3ccccc3)nc2-c2ccc(OCc3ccc(Cl)cc3)cc2)SC(=S)N1CCS(=O)(=O)O [Compound 10, (Z)-2-[5-({3-[4-(4-chlorobenzyloxy)phenyl]-1-phenyl-1H-pyrazol-4-yl}methylene)-4-oxo-2-thioxothiazolidin-3-yl]ethane sulfonic acid] | 0.457 |  | 2.45 |
| 0.474 | O=C1/C(=C/c2cn(-c3ccccc3)nc2-c2ccc(S(=O)(=O)N3CCOCC3)cc2)SC(=S)N1CCS(=O)(=O)O [Compound 14] |  |  | 3.37 |
